Results: patent US20080176857A1, “4-Piperazinnylthieno[2,3-d]Pyrimidine Compounds as Platelet Aggregation Inhibitors” (priority 2005, published 2008)
Several values for one entry are separate records, joined by “and”; a condition that tells them apart may be missing. Identical values can stand only once.

Biological target: P2Y12 receptor (Homo sapiens, UniProt Q9H244)
Test: [33P]-2MeS-ADP binding to recombinant human P2Y12 membranes (Assay 3)
Set-up: expressed in transfected cells; host or cells: HEK cells
Conditions: for IC50 / Ki: HEK cell membranes expressing human P2Y12, competition with 33P 2MeS-ADP; for % Inhibition / inhibition at 10 µM / inhibition at 1 µM: at highest concentration tested
Procedure: 3. Human P2Y12 Recombinant Cell Membrane Binding Assay with ^33P 2MeS-ADP.
The ability of a test compound to bind to the P2Y12 receptor was evaluated in a recombinant cell membrane binding assay. In this competitive binding assay, the test compound competed against a radiolabelled agonist for binding to the P2Y12 receptor, expressed on the cell membrane. Inhibition of binding of the labeled material was measured and correlated to the amount and potency of the test compound. Data from this assay are presented in Table F. This binding assay is a modification of the procedure in Takasaki, J. et. al, Mol. Pharmacol., 2001, Vol. 60, pg. 432.
HEK cells were transfected with the pDONR201P2Y12 vector and cultured in MEM with GlutaMAX I, Earle's salts, 25 mM HEPES (Gibco # 42360-032) containing 10% dialyzed FBS (Gibco # 26400-044), 100 μM nonessential amino acids (Gibco # 11140-050), 1 mM sodium pyruvate (Gibco # 11360-070), 0.05% geneticin (Gibco #10131-027), 3 μg/mL blasticidin (Fluka brand from Sigma # 15205), and 0.5 μg/mL puromycin (Sigma # P-8833).
Confluent cells were washed once with cold DPBS (Gibco # 14190-136). Fresh DPBS was added and the cells were scraped and centrifuged at 500×g for 5 minutes at 4° C. The cell pellets were resuspended in TEE buffer (25 mM Tris, 5 mM EDTA, 5 mM EGTA) containing 1 protease inhibitor cocktail tablet (Roche # 1 873 580) per 50 mL (called TEE+Complete) and can be flash frozen at this point.
In one embodiment, frozen cell pellets were used to prepare the membranes. In that embodiment, the frozen cell pellets were thawed on ice. In another embodiment, cell pellets may be used without flash freezing before moving on to the next step.
Cell pellets were resuspended in TEE buffer+Complete and homogenized in a glass dounce for 12 strokes. The cell suspension was centrifuged at 500×g for 5 minutes at 4° C. The supernatant was saved and centrifuged at 20,000×g for 20 minutes at 4° C. This supernatant was discarded and the cell pellet resuspended in TEE buffer+Complete and homogenized in a glass dounce for 12 strokes. This suspension was centrifuged at 20,000×g for 20 minutes at 4° C. and the supernatant discarded. The pellet was resuspended in assay buffer (50 mM Tris, 100 mM NaCl, 1 mM EDTA) containing one protease inhibitor cocktail tablet per 50 mL, and can be flash frozen as 1 mL aliquots at this point.
Dry compounds were diluted as 10 mM DMSO stocks and tested in a seven-point, three-fold dilution series run in triplicate beginning at 10 μM, final concentration. A 1 mM DMSO intermediate stock was made in a dilution plate and from this the seven dilutions were made to 5× the final concentration in assay buffer containing 0.02% BSA.
The plates were incubated at room temperature for 1 hour. The reaction was stopped using a cell harvester to transfer the reaction mixture onto GF/B UniFilter plates (Perkin Elmer # 6005177), and washed three times with wash buffer (50 mM Tris), filtering between each wash. The filter plates were dried for approximately 20 minutes in an oven at 50° C. Back seals were adhered to the filter plates and 25 uL of Microscint 20 scintillation fluid (Perkin Elmer # 6013621) were added. The filter plates were sealed, shaken for 30 minutes, and counted on a Top Count. Data were analyzed using a four-parameter curve fit with a fixed minimum and maximum experimentally defined as the average positive and negative controls on each plate, and with a hill slope equal to one.
The table below presents the IC50, Ki, and percent inhibition values for compounds tested in either washed human platelets membrane binding assay (assay #1 above) or recombinant cell membrane binding assay (Assay #3, above). Example number refers to the compound prepared as described in the example noted in the section Working Examples, above. The highest concentration of candidate compound tested is listed for each experimental run presented. […]

Sequence of P2Y12 receptor (Q9H244 whole entry): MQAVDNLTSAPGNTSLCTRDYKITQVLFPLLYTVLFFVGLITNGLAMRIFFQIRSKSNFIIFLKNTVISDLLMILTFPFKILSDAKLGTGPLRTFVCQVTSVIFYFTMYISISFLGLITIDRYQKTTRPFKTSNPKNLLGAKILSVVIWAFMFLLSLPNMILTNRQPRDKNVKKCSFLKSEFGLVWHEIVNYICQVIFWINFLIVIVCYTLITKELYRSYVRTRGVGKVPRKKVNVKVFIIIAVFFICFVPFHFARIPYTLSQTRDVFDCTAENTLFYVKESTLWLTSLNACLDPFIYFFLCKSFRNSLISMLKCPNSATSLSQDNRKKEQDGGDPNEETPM

Row | SMILES | IC50 | Ki | % Inhibition (10 μM) | inhibition at 10 µM (10 μM) [%] | inhibition at 1 µM (1 μM) [%] | % Inhibition (1 μM) [%]
1 | CCc1cc2c(N3CCN(C(=O)Cc4ccccc4)CC3)nc(SCC(=O)OC)nc2s1 [Example 7, methyl ({6-ethyl-4-[4-(phenylacetyl)piperazin-1-yl]thieno[2,3-d]pyrimidin-2-yl}thio)acetate] | 1020 nM and 380 nM and 420 nM and 320 nM | 582 nM and 210 nM and 240 nM and 174 nM | 89.51% and 95.92% and 94.06% | 92.9 | – | –
2 | CCc1cc2c(N3CCN(C(=O)Cc4ccccc4)CC3)nc(S(=O)(=O)CC(=O)OC)nc2s1 [Example 8, Methyl ({6-ethyl-4-[4-(phenylacetyl)piperazin-1-yl]thieno[2,3-d]pyrimidin-2-yl}sulfonyl)acetate] | 1200 nM | 720 nM and 680 nM | 81.44% | 81.3 | – | –
3 | CCc1cc2c(N3CCN(C(=O)Cc4ccccc4)CC3)nc(SCC(=O)Nc3ccc4ccccc4c3)nc2s1 [Example 9, 2-({6-Ethyl-4-[4-(phenylacetyl)piperazin-1-yl]thieno[2,3-d]pyrimidin-2-yl}thio)-N-2-naphthylacetamide] | > 10000 nM and 9300 nM | > 5900 nM and 5400 nM | – | – | – | –
4 | C=CCSc1nc(N2CCN(C(=O)Cc3ccccc3)CC2)c2cc(CC)sc2n1 [Example 10, 2-(Allylthio)-6-ethyl-4-[4-(phenylacetyl)piperazin-1-yl]thieno[2,3-d]pyrimidine] | 990 nM and 550 nM | 570 nM and 330 nM | 79.53% | 82.3 | – | –
5 | CCc1cc2c(N3CCN(C(=O)Cc4ccccc4)CC3)nc(SC(C)C(=O)NCC(=O)O)nc2s1 (stereo not shown) [Example 11, N-[2-({6-Ethyl-4-[4-(phenylacetyl)piperazin-1-yl]thieno[2,3-d]pyrimidin-2-yl}thio)propanoyl]glycine] | 330 nM and 230 nM and 270 nM and 328 nM | 190 nM and 130 nM and 160 nM and 189 nM | 92.50% and 88.81% | 90.5 | 81 | –
6 | CCc1cc2c(N3CCN(C(=O)Cc4ccccc4)CC3)nc(SCC(O)CO)nc2s1 (stereo not shown) [Example 12, 3-({6-Ethyl-4-[4-(phenylacetyl)piperazin-1-yl]thieno[2,3-d]pyrimidin-2-yl}thio)propane-1,2-diol] | 340 nM and 370 nM | 200 nM and 210 nM | 92.83% | 83.4 | – | –
7 | CCc1cc2c(N3CCN(C(=O)Cc4ccccc4)CC3)nc(SCC(=O)NC)nc2s1 [Example 13, 2-({6-Ethyl-4-[4-(phenylacetyl)piperazin-1-yl]thieno[2,3-d]pyrimidin-2-yl}thio)-N-methylacetamide] | 280 nM and 530 nM | 160 nM and 310 nM | 88.77% | 88.2 | – | –
8 | CCc1cc2c(N3CCN(C(=O)Cc4ccccc4)CC3)nc(SC(C)C(C)=O)nc2s1 (stereo not shown) [Example 14, 3-({6-Ethyl-4-[4-(phenylacetyl)piperazin-1-yl]thieno[2,3-d]pyrimidin-2-yl}thio)butan-2-one] | 290 nM and 330 nM | 160 nM and 200 nM | 83.72% | 89.9 | – | –
9 | CCc1cc2c(N3CCN(C(=O)Cc4ccccc4)CC3)nc(SCCNC(C)=O)nc2s1 [Example 15, N-[2-({6-Ethyl-4-[4-(phenylacetyl)piperazin-1-yl]thieno[2,3-d]pyrimidin-2-yl}thio)ethyl]acetamide] | 300 nM | 170 nM | 92.26% | 87 | – | –
10 | CCc1cc2c(N3CCN(C(=O)Cc4ccccc4)CC3)nc(SC[C@H](N)C(=O)OC)nc2s1 [Example 16, Methyl S-{6-ethyl-4-[4-(phenylacetyl)piperazin-1-yl]thieno[2,3-d]pyrimidin-2-yl}-L-cysteinate] | 270 nM and 360 nM | 150 nM and 210 nM | 87.82% | 88.7 | – | –
11 | CCc1cc2c(N3CCN(C(=O)Cc4ccccc4)CC3)nc(SCC(C)O)nc2s1 (stereo not shown) [Example 17, 1-({6-Ethyl-4-[4-(phenylacetyl)piperazin-1-yl]thieno[2,3-d]pyrimidin-2-yl}thio)propan-2-ol] | 500 nM and 530 nM | 290 nM and 310 nM | 87.05% | 90.6 | – | –
12 | CCc1cc2c(N3CCN(C(=O)c4ccc(-c5ccccc5)cc4)CC3)nc(Cl)nc2s1 [Example 21, 4-[4-(1,1′-Biphenyl-4-ylcarbonyl)piperazin-1-yl]-2-chloro-6-ethylthieno[2,3-d]pyrimidine] | 22 nM and 10 nM and 20 nM and 43 nM | 12 nM and 10 nM and 25 nM | 98.24% | 95.8 | 91.9 | 95.00
13 | CCc1cc2c(N3CCN(C(=O)c4ccc(-c5ccccc5)cc4)CC3)nc(SCC(=O)OC)nc2s1 [Example 22, Methyl ({4-[4-(1,1′-biphenyl-4-ylcarbonyl)piperazin-1-yl]-6-ethylthieno[2,3-d]pyrimidin-2-yl}thio)acetate] | 43 nM and 51 nM | 25 nM and 28 nM | 90.70% | 92.7 | – | –
14 | CCc1cc2c(N3CCN(C(=O)Cc4ccccc4)CC3)nc(SCC(=O)Nc3ccccc3)nc2s1 [Example 23, 2-({6-Ethyl-4-[4-(phenylacetyl)piperazin-1-yl]thieno[2,3-d]pyrimidin-2-yl}thio)-N-phenylacetamide] | – | – | 75.04% | 64.6 | – | –
15 | CCc1cc2c(N3CCN(C(=O)Cc4ccccc4)CC3)nc(SCC(N)=O)nc2s1 [Example 24, 2-({6-Ethyl-4-[4-(phenylacetyl)piperazin-1-yl]thieno[2,3-d]pyrimidin-2-yl}thio)acetamide] | 190 nM and 240 nM | 110 nM and 130 nM | 92.16% | 83.1 | – | –

Other lines, results leading:

Row | IC50 | Ki | % Inhibition (10 μM) | inhibition at 10 µM (10 μM) [%] | inhibition at 1 µM (1 μM) [%] | % Inhibition (1 μM) [%] | SMILES
16 | 200 nM and 270 nM | 110 nM and 150 nM | 94.08% | 88.6 | – | – | CCc1cc2c(N3CCN(C(=O)Cc4ccccc4)CC3)nc(SC(C)C(=O)O)nc2s1 (stereo not shown) [Example 25, 2-({6-Ethyl-4-[4-(phenylacetyl)piperazin-1-yl]thieno[2,3-d]pyrimidin-2-yl}thio)propanoic acid]
17 | 800 nM | 460 nM and 430 nM | 88.94% | 88.7 | – | – | CCc1cc2c(N3CCN(C(=O)Cc4ccccc4)CC3)nc(SCCc3ccncc3)nc2s1 [Example 26, 6-Ethyl-4-[4-(phenylacetyl)piperazin-1-yl]-2-[(2-pyridin-4-ylethyl)thio]thieno[2,3-d]pyrimidine]
18 | 100 nM | 58 nM | – | 96.5 | – | – | CCc1cc2c(N3CCN(C(=O)c4ccc(-c5ccccc5)cc4)CC3)nc(SCCNC(C)=O)nc2s1 [Example 27, N-[2-({4-[4-(1,1′-Biphenyl-4-ylcarbonyl)piperazin-1-yl]-6-ethylthieno[2,3-d]pyrimidin-2-yl}thio)ethyl]acetamide]
19 | 38 nM | 22 nM | – | 94.3 | – | – | CCc1cc2c(N3CCN(C(=O)c4ccc(-c5ccccc5)cc4)CC3)nc(SCC(O)CO)nc2s1 (stereo not shown) [Example 28, 3-({4-[4-(1,1′-Biphenyl-4-ylcarbonyl)piperazin-1-yl]-6-ethylthieno[2,3-d]pyrimidin-2-yl}thio)propane-1,2-diol]
20 | 160 nM | 91 nM | – | 82.2 | – | – | CCc1cc2c(N3CCN(C(=O)c4ccc(-c5ccccc5)cc4)CC3)nc(SC(C)C(C)=O)nc2s1 (stereo not shown) [Example 29, 3-({4-[4-(1′-Biphenyl-4-ylcarbonyl)piperazin-1-yl]-6-ethylthieno[2,3-d]pyrimidin-2-yl}thio)butan-2-one]
21 | 31 nM | 18 nM | – | 99.7 | – | – | CCc1cc2c(N3CCN(C(=O)c4ccc(-c5ccccc5)cc4)CC3)nc(SCC(N)=O)nc2s1 [Example 31, 2-({4-[4-(1,1′-Biphenyl-4-ylcarbonyl)piperazin-1-yl]-6-ethylthieno[2,3-d]pyrimidin-2-yl}thio)acetamide]
